Measurements from patent publication US20020026053A1, “Novel 3-(substituted) -2- indolinones compounds and use thereof as inhibitors of protein kinase activity” (priority 1997, published 2002).
Where “and” joins values, the source holds several entries; their conditions need not be identical. Identical values can stand only once.

Legend:
FLK-1 receptor = assay: FLK-1 Assay (cellular/catalytic ELISA, VEGF-stimulated phosphotyrosine); type: cell-based; parameters: concentration or dose not given beside the values; conditions: protocol P.110
Description: (§1) The cellular/catalytic assays described herein are performed in an ELISA format. The general procedure is as follows: a compound is introduced to cells expressing the test kinase, either naturally or recombinantly, for a selected period of time after which, if the test kinase is a receptor, a ligand known to activate the receptor is added. The cells are lysed and the lysate is transferred to the wells of an ELISA plate previously coated with a specific antibody recognizing the substrate of the enzymatic phosphorylation reaction. Non-substrate components of the cell lysate are washed away and the amount of phosphorylation on the substrate is detected with an antibody specifically recognizing phosphotyrosine compared with control cells that were not contacted with a test compound.
An ELISA assay is conducted to measure the kinase activity of the FLK-1 receptor and more specifically, the inhibition or activation of TK activity on the FLK-1 receptor. Specifically, the following assay can be conducted to measure kinase activity of the FLK-1 receptor in cells genetically engineered to express Flk-1.
a. Corning 96-well ELISA plates (Corning Catalog No. 25805-96);
b. Cappel goat anti-rabbit IgG (catalog no. 55641);
c. PBS (Gibco Catalog No. 450-1300EB);
d. TBSW Buffer (50 mM Tris (pH 7.2), 150 mM NaCl and 0.1% Tween-20);
e. Ethanolamine stock (10% ethanolamine (pH 7.0), stored at 4° C.);
f. HNTG buffer (20 mM HEPES buffer (pH 7.5), 150 mM NaCl, 0.2% Triton X-100, and 10% glycerol);
g. EDTA (0.5 M (pH 7.0) as a 100× stock);
h. Sodium orthovanadate (0.5 M as a 100× stock);
i. Sodium pyrophosphate (0.2 M as a 100× stock);
j. NUNC 96 well V bottom polypropylene plates (Applied Scientific Catalog No. AS-72092);
k. NIH3T3 C7#3 Cells (FLK-1 expressing cells);
l. DMEM with 1× high glucose L-Glutamine (catalog No. 11965-050);
n. L-glutamine, Gibco (catalog no. 25030-016);
o. VEGF, PeproTech, Inc. (catalog no. 100-20)(kept as 1 μg/100 μl stock in Milli-Q dH2O and stored at −20° C.;
p. Affinity purified anti-FLK-1 antiserum;
q. UB40 monoclonal antibody specific for phosphotyrosine (see, Fendley, et al., 1990, Cancer Research 50:1550-1558);
r. EIA grade Goat anti-mouse IgG-POD (BioRad catalog no. 172-1011);
s. 2,2-azino-bis(3-ethylbenz-thiazoline-6-sulfonic acid (ABTS) solution (100 mM citric acid (anhydrous), 250 mM Na2HPO4 (pH 4.0), 0.5 mg/ml ABTS (Sigma catalog no. A-1888)), solution should be stored in dark at 4° C. until ready for use;
t. H2O2 (30% solution) (Fisher catalog no. H325);
u. ABTS/ H2O2 (15 ml ABTS solution, 2 μl H2O2) prepared 5 minutes before use and left at room temperature;
v. 0.2 M HCl stock in H2O;
w. dimethylsulfoxide (100%) (Sigma Catalog No. D-8418); and
y. Trypsin-EDTA (Gibco BRL Catalog No. 25200-049).
1. Coat Corning 96-well ELISA plates with 1.0 μg per well Cappel Anti-rabbit IgG antibody in 0.1M Na2CO3 pH 9.6. Bring final volume to 150 μl per well. Coat plates overnight at 4° C. Plates can be kept up to two weeks when stored at 4° C.
2. Grow cells in Growth media (DMEM, supplemented with 2.0 mM L-Glutamine, 10% FBS) in suitable culture dishes until confluent at 37° C., 5% CO2.
3. Harvest cells by trypsinization and seed in Corning 25850 polystyrene 96-well round bottom cell plates, 25,000 cells/well in 200 μl of growth media.
4. Grow cells at least one day at 37° C., 5% CO2.
5. Wash cells with D-PBS 1×.
6. Add 200 μl/well of starvation media (DMEM, 2.0 mM 1-Glutamine, 0.1% FBS). Incubate overnight at 37° C., 5% CO2.
7. Dilute Compounds 1:20 in polypropylene 96 well plates using starvation media. Dilute dimethylsulfoxide 1:20 for use in control wells.
8. Remove starvation media from 96 well cell culture plates and add 162 μl of fresh starvation media to each well.
9. Add 18 μl of 1:20 diluted compound dilution (from step 7) to each well plus the 1:20 dimethylsulfoxide dilution to the control wells (+/− VEGF), for a final dilution of 1:200 after cell stimulation. Final dimethylsulfoxide is 0.5%. Incubate the plate at 37° C., 5% CO2 for two hours.
10. […]

PDGF-R = PDGF-R Assay (cellular ELISA, U1242 cells); type: cell-based; parameters: concentration or dose not given beside the values; conditions: protocol P.119
Description: as §1
All cell culture media, glutamine, and fetal bovine serum can be purchased from Gibco Life Technologies (Grand Island, N.Y.) unless otherwise specified. All cells are grown in a humid atmosphere of 90-95% air and 5-10% CO2 at 37° C. All cell lines are routinely subcultured twice a week and are negative for mycoplasma as determined by the Mycotect method (Gibco).
For ELISA assays, cells (U1242, obtained from Joseph Schlessinger, NYU) are grown to 80-90% confluency in growth medium (MEM with 10% FBS, NEAA, 1 mM NaPyr and 2 mM GLN) and seeded in 96-well tissue culture plates in 0.5% serum at 25,000 to 30,000 cells per well. After overnight incubation in 0.5% serum-containing medium, cells are changed to serum-free medium and treated with test compound for 2 hr in a 5% CO2, 37° C. incubator. Cells are then stimulated with ligand for 5-10 minute followed by lysis with HNTG (20 mM Hepes, 150 mM NaCl, 10% glycerol, 5 mM EDTA, 5 mM Na3VO4, 0.2% Triton X-100, and 2 mM NaPyr). Cell lysates (0.5 mg/well in PBS) are transferred to ELISA plates previously coated with receptor-specific antibody and which had been blocked with 5% milk in TBST (50 mM Tris-HCl pH 7.2, 150 mM NaCl and 0.1% Triton X-100) at room temperature for 30 min. Lysates are incubated with shaking for 1 hour at room temperature. The plates are washed with TBST four times and then incubated with polyclonal anti-phosphotyrosine antibody at room temperature for 30 minutes. Excess anti-phosphotyrosine antibody is removed by rinsing the plate with TBST four times. Goat anti-rabbit IgG antibody is added to the ELISA plate for 30 min at room temperature followed by rinsing with TBST four more times. ABTS (100 mM citric acid, 250 mM Na2HPO4 and 0.5 mg/mL 2,2′-azino-bis (3-ethylbenzthiazoline-6-sulfonic acid)) plus H2O2 ([…] 30% H2O2 to 10 ml ABTS) is added to the ELISA plates to start color development. Absorbance at 410 nm with a reference wavelength of 630 nm is recorded about 15 to 30 min after ABTS addition.

SMILES: Cc1c(Br)cc(Br)c2c1C(=CC1COc3ccccc3O1)C(=O)N2 (racemic) [10739/H05]
- Flk Kinase % Inhibition (P.110) (FLK-1 receptor): 5.3% and 10.0%
- PDGF Kinase % Inhibition (P.119) (PDGF-R): −5.0% and −6.4%
